SMILES strings stand for the structures.

Common to all, as to format: functional
One assay relates to NCI-H23. The assay can be described thus: Growth inhibition of human NCI-H23 cells after 48 hrs by SRB assay. The note with it: NCI-H23, 48 h.
For another assay, the system named is SF-295. The assay can be described thus: Growth inhibition of human SF295 cells after 48 hrs by SRB assay. Particulars: SF-295, 48 h. On the technique in general: Sulforhodamine B stains cellular protein and so reports cell mass.
In the next assay the test system is U-251. The experiment in a line: Growth inhibition of human U251 cells after 48 hrs by SRB assay. Particulars: U-251, 48 h.
In the next assay the test system is LOX IMVI. The assay can be described thus: Growth inhibition of human LOXIMVI cells after 48 hrs by SRB assay.
A further assay deals with SK-MEL-5. The experiment in a line: Growth inhibition of human SK-MEL-5 cells after 48 hrs by SRB assay. The note with it: SK-MEL-5, 48 h.
In a further assay the test system is OVCAR-8. The experiment in a line: Growth inhibition of human OVCAR8 cells after 48 hrs by SRB assay. Particulars: OVCAR-8, 48 h.
A short description of assay [1]: Growth inhibition of human NCI-ADR-RES cells after 48 hrs by SRB assay.
The test system of a further assay is SN12C. The assay can be described thus: Growth inhibition of human SN12C cells after 48 hrs by SRB assay.
The test system of another assay is DU-145. The experiment in a line: Growth inhibition of human DU145 cells after 48 hrs by SRB assay. The note with it: DU-145, 48 h.
Another assay has as its system MDA-MB-231. The assay can be described thus: Growth inhibition of human MDA-MB-231 cells after 48 hrs by SRB assay. Particulars: MDA-MB-231, 48 h.
The nature of assay [2]: Growth inhibition of human Hs 578T cells after 48 hrs by SRB assay.
A further assay has as its system BT-549. The experiment in a line: Growth inhibition of human BT549 cells after 48 hrs by SRB assay. Particulars: BT-549, 48 h.
The next assay concerns SF-539. The assay can be described thus: Growth inhibition of human SF539 cells after 48 hrs by SRB assay. The note with it: SF-539, 48 h.
The test system of the next assay is MOLT-4. The experiment in a line: Growth inhibition of human MOLT4 cells assessed as cell growth at 10^-5 M after 48 hrs by SRB assay. The note with it: MOLT-4, 48 h, read-out: Activity.
Where [3] appears, read: read-out: LC50 (the source's name).

The GI50 is the concentration at which growth is held to half of that of the control. High values mean lower sensitivity of the cells, low ones greater sensitivity of the cells. Broadly, the TGI is the concentration at which net growth stops. Read a low TGI as more potent growth arrest. For `O=C(CO[N+](=O)[O-])Nc1ccc(C(=O)/C=C/c2ccc(Cl)cc2)cc1`, the GI50 was 4.55 µM in the assay with NCI-H23; 5.82 µM in the assay on SF-295; 1480 nM in the assay on U-251; 1590 nM in the assay with LOX IMVI; 4.23 µM in the assay on SK-MEL-5; 3.24 µM in the assay with OVCAR-8. The GI50 in assay [1] amounted to 3.87 µM; in the assay on SN12C, 3.15 µM; with DU-145, 3.41 µM; in the assay with MDA-MB-231, 5.39 µM; in assay [2] it was 2850 nM; in the assay with BT-549, 1860 nM. Further, in the assay with SF-539, the GI50 came out at 2520 nM. The TGI in the assay on NCI-H23 amounted to 22.1 µM; in the assay on SF-295 it was 29.2 µM; with U-251, 3.15 µM; with LOX IMVI, 3.51 µM; in the assay with SK-MEL-5, 15.4 µM; in the assay on OVCAR-8, 14 µM. The TGI in assay [1] was over 100 µM; in the assay with SN12C, 14.1 µM; in the assay on DU-145 it was 13.5 µM; in the assay with MDA-MB-231, 21.2 µM; in assay [2], 14.2 µM; in the assay with BT-549 it was 5 µM. Also, the TGI with SF-539 amounted to 8.82 µM. Moreover, the CC50 is 81.1 µM in the assay with NCI-H23 (setting [3]); over 100 µM in the assay with SF-295 (setting [3]); 6.68 µM in the assay with U-251 (setting [3]); 7.74 µM with LOX IMVI (setting [3]); 39.8 µM in the assay on SK-MEL-5 (setting [3]); 63 µM with OVCAR-8 (setting [3]). Besides, the CC50 was over 100 µM in [1] (setting [3]); 49.6 µM in the assay with SN12C (setting [3]); 36.7 µM with DU-145 (setting [3]); 62 µM in the assay with MDA-MB-231 (setting [3]); over 100 µM in assay [2] (setting [3]); over 100 µM in the assay with BT-549 (setting [3]). Further, the CC50 in the assay on SF-539 (setting [3]) worked out at 42.9 µM.

For `O=C(CO[N+](=O)[O-])Nc1ccc(C(=O)/C=C/c2ccc3c(c2)OCO3)cc1`, the growth at 10 µM in the assay on MOLT-4 turned out to be 99.7%.

The values above are taken from ChEMBL document CHEMBL2040759, “Design, synthesis and anticancer activity of nitric oxide donating/chalcone hybrids” (2012).
